Reference: US20250129070A1, “BIFUNCTIONAL ANDROGEN RECEPTOR COMPOUNDS” (priority 2023, published 2025)
Where two headings read alike, the source gives them in different places.

Experiments:
Type in all cases: cell-based
[1] = molecular target: Histone H3.3/CBP-BD Interaction (Homo sapiens, UniProt Q92793); experiment: NanoBRET cellular assay (Histone H3.3/CBP-BD Interaction Assay)
AR / CBP ternary complex = experiment: Ternary complex formation assay (sandwich ELISA, AR capture / CBP detection) in VCaP cell lysates; details: 1.5 hours treatment, sandwich ELISA (AR capture, CBP or p300 detection)
Procedure, shortened: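 Anti-AR (AR 441)-coated plates capture AR from lysates of VCaP cells grown ≥3 days at 50K/well in 5% charcoal-stripped FBS, dosed with bifunctional for 1.5 h and lysed 30 min at 4 °C. Co-captured CBP/p300 is probed with rabbit mAb and HRP anti-rabbit, then QuantaRed fluorescence (570/585) is read at 0, 5 and 15 min.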

VCaP cells = experiment: VCaP growth inhibition assay; details: 30 pM R1881, 9 days, CTG
Procedure, shortened: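 Growth read by CTG luminescence after 9-day exposure to compound (final 100 nM–10 fM, 1:5 steps) plus 30 pM R1881, in phenol red-free DMEM with 5% CSS. Cells pre-incubated 72 h before dosing; IC50 by nonlinear 4-parameter regression.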

HEK-293 cells = experiment: HEK-293 growth inhibition assay; details: 3 days, CTG
Procedure, shortened: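 HEK-293 cells plated 24 hours before compound treatment, then exposed for 3 days at 37°C/5% CO2. Viability by CellTiter-Glo luminescence after 20 minutes at room temperature. IC50 from RLU versus concentration via 4-parameter logistic nonlinear regression.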

Histone H3.3/CBP-BD Interaction, sequence (Q92793 1085-1192 limits assumed): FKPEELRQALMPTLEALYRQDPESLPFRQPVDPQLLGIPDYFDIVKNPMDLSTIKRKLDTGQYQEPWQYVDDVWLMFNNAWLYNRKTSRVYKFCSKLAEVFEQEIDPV

Question: How did the IC50 ([1]; HEK293 cells transfected with Histone H3.3-HaloTag and CBP-BD-NanoLuc, 22 hours treatment, test compounds starting at 1 uM, SGC-CBP-30 starting at 10 uM, 10-dose with 3-fold dilution) turn out when `CNC(=O)N1CCc2c(c(N3CCCc4cc(-c5cnn(C)c5)c(C(F)F)cc43)nn2C2CCOCC2)C1` [GNE-781, reference compound] was run?
Answer: 0.123 nM

Question: With `CNC(=O)N1CCc2c(c(N3CCCc4cc(-c5cnn(C)c5)c(C(F)F)cc43)nn2C2CCN(C(=O)CN3CCN(c4ncc(C(=O)NC5C(C)(C)C(Oc6ccc(C#N)c(Cl)c6)C5(C)C)cn4)CC3)CC2)C1` (centres unmarked) [Compound 109, 1-[1-[2-[4-[5-[[3-(3-chloro-4-cyano-phenoxy)-2,2,4,4-tetramethyl-cyclobutyl]carbamoyl]pyrimidin-2-yl]piperazin-1-yl]acetyl]-4-piperidyl]-3-[7-(difluoromethyl)-6-(1-methylpyrazol-4-yl)-3,4-dihydro-2H-quinolin-1-yl]-N-methyl-6,7-dihydro-4H-pyrazolo[4,3-c]pyridine-5-carboxamide] as the molecule, how does the EC50 (AR / CBP ternary complex) read?
Answer: < 1 nM

Question: What about the IC50 [1] of the same molecule?
Answer: > 1000 nM

Question: And the IC50 (VCaP cells)?
Answer: ≤ 0.1 nM

Question: And the IC50 (HEK-293 cells)?
Answer: > 10 µM

Question: Which results are given for `CNC(=O)N1CCc2c(c(N3CCCc4cc(-c5cnn(C)c5)c(C(F)F)cc43)nn2C2CCN(C(=O)COCCCOCC3CCN(c4ncc(C(=O)NC5C(C)(C)C(Oc6ccc(C#N)c(Cl)c6)C5(C)C)cn4)CC3)CC2)C1` (centres unmarked) [Compound 97, 1-[1-[2-[3-[[1-[5-[[3-(3-chloro-4-cyano-phenoxy)-2,2,4,4-tetramethyl-cyclobutyl]carbamoyl]pyrimidin-2-yl]-4-piperidyl]methoxy]propoxy]acetyl]-4-piperidyl]-3-[7-(difluoromethyl)-6-(1-methylpyrazol-4-yl)-3,4-dihydro-2H-quinolin-1-yl]-N-methyl-6,7-dihydro-4H-pyrazolo[4,3-c]pyridine-5-carboxamide]?
Answer: EC50 (AR / CBP ternary complex): < 1 nM; IC50 (VCaP cells): ≤ 0.1 nM; IC50 (HEK-293 cells): > 10 µM

Question: Which EC50 (AR / CBP ternary complex) does the source give for `CNC(=O)N1CCc2c(c(N3CCCc4cc(-c5cnn(C)c5)c(C(F)F)cc43)nn2C2CCN(C(=O)COCCCN3CCN(c4ncc(C(=O)NC5C(C)(C)C(Oc6ccc(C#N)c(Cl)c6)C5(C)C)cn4)CC3)CC2)C1` (centres unmarked) [Compound 105, 1-[1-[2-[3-[4-[5-[[3-(3-chloro-4-cyano-phenoxy)-2,2,4,4-tetramethyl-cyclobutyl]carbamoyl]pyrimidin-2-yl]piperazin-1-yl]propoxy]acetyl]-4-piperidyl]-3-[7-(difluoromethyl)-6-(1-methylpyrazol-4-yl)-3,4-dihydro-2H-quinolin-1-yl]-N-methyl-6,7-dihydro-4H-pyrazolo[4,3-c]pyridine-5-carboxamide] here?
Answer: < 1 nM

Question: What about the IC50 (VCaP cells) of the same molecule?
Answer: 0.1 to 1 nM

Question: What about the IC50 (HEK-293 cells) of the same molecule?
Answer: > 10 µM

Question: How did the EC50 (AR / CBP ternary complex) turn out when `CNC(=O)N1CCc2c(c(N3CCCc4cc(-c5cnn(C)c5)c(C(F)F)cc43)nn2C2CCN(C(=O)COCCOCCN3CCN(c4ncc(C(=O)NC5C(C)(C)C(Oc6ccc(C#N)c(Cl)c6)C5(C)C)cn4)CC3)CC2)C1` (centres unmarked) [Compound 103, 1-[1-[2-[2-[2-[4-[5-[[3-(3-chloro-4-cyano-phenoxy)-2,2,4,4-tetramethyl-cyclobutyl]carbamoyl]pyrimidin-2-yl]piperazin-1-yl]ethoxy]ethoxy]acetyl]-4-piperidyl]-3-[7-(difluoromethyl)-6-(1-methylpyrazol-4-yl)-3,4-dihydro-2H-quinolin-1-yl]-N-methyl-6,7-dihydro-4H-pyrazolo[4,3-c]pyridine-5-carboxamide] was run?
Answer: < 1 nM

Question: What about the IC50 (VCaP cells) of the same molecule?
Answer: 0.1 to 1 nM

Question: What about the IC50 (HEK-293 cells) of the same molecule?
Answer: > 10 µM

Question: With `CC(=O)N1CCc2c(c(N3CCCc4cc(-c5cnn(C)c5)c(C(F)F)cc43)nn2C2CCN(C(=O)COC3CCN(c4ncc(C(=O)NC5C(C)(C)C(Oc6ccc(C#N)c(Cl)c6)C5(C)C)cn4)CC3)CC2)C1` (centres unmarked) [Compound 69, 2-[4-[2-[4-[5-acetyl-3-[7-(difluoromethyl)-6-(1-methylpyrazol-4-yl)-3,4-dihydro-2H-quinolin-1-yl]-6,7-dihydro-4H-pyrazolo[4,3-c]pyridin-1-yl]-1-piperidyl]-2-oxo-ethoxy]-1-piperidyl]-N-[3-(3-chloro-4-cyano-phenoxy)-2,2,4,4-tetramethyl-cyclobutyl]pyrimidine-5-carboxamide] as the molecule, how does the EC50 (AR / CBP ternary complex) read?
Answer: < 1 nM

Question: What about the IC50 (VCaP cells) of the same molecule?
Answer: 0.1 to 1 nM

Question: What about the IC50 (HEK-293 cells) of the same molecule?
Answer: > 10 µM
